Literature values as cited in patent US20260345619A1 (Principia Biopharma Inc., priority 2023, published 2026).

Experiments:
BTK = conditions: preclinical assays; cited from earlier work
[1] = ITP, cited from earlier work

CC(C)(C=C(C#N)C(=O)N1CCC[C@@H](n2nc(-c3ccc(Oc4ccccc4)cc3F)c3c(N)ncnc32)C1)N1CCN(C2COC2)CC1 (mixture of isomers) [rilzabrutinib, (R)-2-[3-[4-amino-3-(2-fluoro-4-phenoxy-phenyl)pyrazolo[3,4-d]pyrimidin-1-yl]piperidine-1-carbonyl]-4-methyl-4-[4-(oxetan-3-yl)piperazin-1-yl]pent-2-enenitrile]
binding to BTK over time (BTK): persisted | treatment-emergent serious adverse events (TESAEs) ([1]; Phase 1/2): no treatment-emergent serious adverse events (TESAEs) observed | participants achieving the primary response endpoint ([1]; treatment for at least 12 weeks): 50%
